Where two headings read alike, the source gives them in different places. Non-standard residues stand in square brackets, D forms with d. Residues, ends and D or L forms follow the SMILES beside them. Bta = N[C@@H](Cc1csc2ccccc12)C(=O)O; tBuAla = CC(C)(C)C[C@H](N)C(=O)O; 3Thi = N[C@@H](Cc1ccsc1)C(=O)O; αMeP = C[C@@]1(C(=O)O)CCCN1; Aib = CC(C)(N)C(=O)O
Target: T1, full-length beta-Catenin (Uniprot ID P35222) (Homo sapiens, UniProt P35222)
T1 construct: 10 nM full-length beta-Catenin (Uniprot ID P35222)
T1 sequence (P35222 1-781): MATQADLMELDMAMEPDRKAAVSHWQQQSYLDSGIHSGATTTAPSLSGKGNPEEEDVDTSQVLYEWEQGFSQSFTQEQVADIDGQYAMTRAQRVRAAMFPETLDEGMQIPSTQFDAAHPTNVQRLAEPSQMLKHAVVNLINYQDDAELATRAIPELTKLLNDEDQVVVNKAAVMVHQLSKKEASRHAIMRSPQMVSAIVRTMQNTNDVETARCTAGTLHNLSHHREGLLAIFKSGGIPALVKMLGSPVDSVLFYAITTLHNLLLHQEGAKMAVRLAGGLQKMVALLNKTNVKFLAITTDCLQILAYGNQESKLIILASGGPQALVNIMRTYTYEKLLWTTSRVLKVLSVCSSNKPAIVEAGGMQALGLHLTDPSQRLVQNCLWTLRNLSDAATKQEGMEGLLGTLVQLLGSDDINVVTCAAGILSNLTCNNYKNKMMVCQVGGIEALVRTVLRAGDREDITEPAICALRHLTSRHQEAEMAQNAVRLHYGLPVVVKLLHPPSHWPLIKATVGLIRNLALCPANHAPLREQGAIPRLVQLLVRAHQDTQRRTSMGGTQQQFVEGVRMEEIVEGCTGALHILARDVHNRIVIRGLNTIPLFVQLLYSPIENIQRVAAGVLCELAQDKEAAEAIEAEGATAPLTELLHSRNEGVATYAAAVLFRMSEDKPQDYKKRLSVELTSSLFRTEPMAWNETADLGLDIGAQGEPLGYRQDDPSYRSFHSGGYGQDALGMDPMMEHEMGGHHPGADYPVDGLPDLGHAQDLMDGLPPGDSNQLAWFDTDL
Assay: Fluorescence polarization IC50 (beta-catenin / 5FAM-TCF4 10-53 competition)
Format: binding
Details: read-out: beta-Catenin FP IC50

Compound	IC50 (fluorescence polarization)	IC50
CC(=O)N1CCC[C@]12CCCCCC[C@@](C)(C(=O)N[C@@H](CC(=O)O)C(=O)N[C@@H](CC(=O)O)C(=O)N[C@@H](C)C(=O)N[C@@H](C)C(=O)N[C@@H](Cc1ccccc1)C(=O)N[C@@H](CC(C)C)C(=O)NC(C)(C)C(=O)N[C@@H](Cc1ccsc1)C(=O)N[C@@H](Cc1csc3ccccc13)C(=O)N[C@@H](CCC(N)=O)C(N)=O)NC(=O)[C@H](CC(C)(C)C)NC(=O)[C@H](CC(=O)O)NC2=O [I-1809, Ac-PL3-Asp-Npg-S5-Asp-Asp-Ala-Ala-Phe-Leu-Aib-3Thi-BztA-Gln-NH2]	1.95 µM	
CC(=O)N1CCC[C@]12CC=CCCCC1(CCCC=CCCCOC(=O)N3CC[C@@](C(=O)N[C@@H](Cc4ccsc4)C(=O)N[C@@H](Cc4csc5ccccc45)C(=O)NC(CCCCNC(=O)c4ccc5c(c4)B(O)OC5)C(N)=O)(C3)NC(=O)[C@H](CC(C)C)NC(=O)[C@H](Cc3ccccc3)NC(=O)[C@H](C)NC(=O)[C@H](C)NC(=O)[C@H](CN(CC(=O)O)CC(F)(F)F)NC(=O)[C@H](CC(=O)O)NC1=O)NC(=O)[C@H](CC(C)(C)C)NC(=O)[C@H](CC(=O)O)NC2=O (stereo partly drawn) [I-2186, Ac-PL3-Asp-Npg-B5-Asp-TfeGA-Ala-Ala-Phe-Leu-PyrS2-3Thi-BztA-BnBoroleK-NH2]		0.459 µM
CC(=O)N1CC2CC1C(=O)N[C@@H](CC(=O)O)C(=O)N[C@@H](CC(C)(C)C)C(=O)NC1(CCCC=CCCCOC(=O)N3CC[C@@](C(=O)N[C@@H](Cc4ccsc4)C(=O)N[C@@H](Cc4csc5ccccc45)C(=O)N[C@@H](CCC(N)=O)C(N)=O)(C3)NC(=O)[C@H](CC(N)=O)NC(=O)[C@H](Cc3ccccc3)NC(=O)[C@H](C)NC(=O)[C@H](C)NC(=O)[C@H](CC(=O)O)NC(=O)[C@H](CC(=O)O)NC1=O)CCCC=CCC(=O)O2 (stereo partly drawn) [I-1575, Ac-HypEs4-Asp-Npg-B5-Asp-Asp-Ala-Ala-Phe-Asn-PyrS2-3Thi-BztA-Gln-NH2]	0.079 µM	
CC(=O)N1CCC[C@]12CC=CCCCC1(CCCC=CCCCOC(=O)N3CC[C@@](C(=O)N[C@@H](Cc4ccsc4)C(=O)N[C@@H](Cc4c[nH]c5cccc(Cl)c45)C(=O)N[C@@H](CCC(N)=O)C(N)=O)(C3)NC(=O)[C@H](CC(C)C)NC(=O)[C@H](Cc3ccccc3)NC(=O)[C@H](C)NC(=O)[C@H](C)NC(=O)[C@H](CC(=O)O)NC(=O)[C@H](CC(=O)O)NC1=O)NC(=O)[C@H](CC(C)(C)C)NC(=O)[C@H](CC(=O)O)NC2=O (stereo partly drawn) [I-2177, Ac-PL3-Asp-Npg-B5-Asp-Asp-Ala-Ala-Phe-Leu-PyrS2-3Thi-4C1W-Gln-NH2]	0.253 µM	
CC(=O)N1CCC[C@]12CC=CCCCC1(CCCC=CCCCCCC[C@@](C)(C(=O)N[C@@H](Cc3ccccc3Cl)C(=O)N[C@@H](Cc3csc4ccccc34)C(=O)N[C@H](CO)[C@@H](C)O)NC(=O)[C@H](CCO)NC(=O)[C@H](Cc3ccccc3)NC(=O)[C@H](C)NC(=O)[C@H](C)NC(=O)[C@H](CC(=O)O)NC(=O)[C@H](CC(=O)O)NC1=O)NC(=O)[C@H](CC(C)(C)C)NC(=O)[C@H](CC(=O)O)NC2=O (stereo partly drawn) [I-1491, Ac-PL3-Asp-Npg-B5-Asp-Asp-Ala-Ala-Phe-Hse-S8-2C1F-BztA-Thro1]	0.034 µM	
CC(=O)N1CCC[C@]12CC=CCCCC1(CCCC=CCOC(=O)N3CC(C(=O)N[C@@H](Cc4ccsc4)C(=O)N[C@@H](Cc4csc5ccccc45)C(=O)N[C@@H](CCC(N)=O)C(N)=O)(C3)NC(=O)[C@H](CC(N)=O)NC(=O)[C@H](Cc3ccccc3)NC(=O)[C@H](C)NC(=O)[C@H](C)NC(=O)[C@H](CC(=O)O)NC(=O)[C@H](CC(=O)O)NC1=O)NC(=O)[C@H](CC(C)(C)C)NC(=O)[C@H](CC(=O)O)NC2=O (stereo partly drawn) [I-1827, Ac-PL3-Asp-Npg-B5-Asp-Asp-Ala-Ala-Phe-Asn-Az-3Thi-BztA-Gln-NH2]	0.308 µM	
CC(=O)N1CCC[C@@]1(C)C(=O)N[C@@H](CC(=O)O)C(=O)N[C@@H](CC(C)(C)C)C(=O)NC(C)(C)C(=O)N[C@@H](CC(=O)O)C(=O)N[C@@H](CC(=O)O)C(=O)N[C@@H](C)C(=O)N[C@@H](C)C(=O)N[C@@H](Cc1ccccc1)C(=O)N[C@@H](CCC(N)=O)C(=O)NC(C)(C)C(=O)N[C@@H](Cc1ccsc1)C(=O)N[C@@H](Cc1csc2ccccc12)C(=O)N[C@@H](Cc1c[nH]cn1)C(N)=O [I-2228, Ac-MePro-Asp-Npg-Aib-Asp-Asp-Ala-Ala-Phe-Gln-Aib-3thi-BztA-His-NH2] (Ac-[αMeP]D[tBuAla][Aib]DDAAFQ[Aib][3Thi][Bta]H-NH2)	2.14 µM	

More lines, main results first:

IC50 (fluorescence polarization)	Compound	IC50
0.345 µM	CC(=O)N1CCC[C@]12CC=CCCCC1(CCCC=CCCCOC(=O)N3CCC(C(=O)N[C@@H](Cc4ccccc4C(F)(F)F)C(=O)N[C@@H](Cc4csc5ccccc45)C(=O)N[C@@H](C)C(N)=O)(CC3)NC(=O)[C@H](CC(C)C)NC(=O)[C@H](Cc3ccccc3)NC(=O)[C@H](C)NC(=O)[C@H](CCC(N)=O)NC(=O)[C@H](Cc3cccc(C(=O)O)c3)NC(=O)[C@H](CC(=O)O)NC1=O)NC(=O)[C@H](CC(C)(C)C)NC(=O)[C@H](CC(=O)O)NC2=O (stereo partly drawn) [I-2586, Ac-PL3-Asp-Npg-B5-Asp-3COOHF-Gln-Ala-Phe-Leu-SPip2-2F3MeF-BztA-Ala-NH2]	
0.179 µM	CCCC[C@@H]1NC(=O)[C@H](CC(=O)O)NC(=O)[C@]2(CCCCCCC3(CCCCCCCCOC(=O)N4CC[C@@](C(=O)N[C@@H](Cc5ccccc5C(F)(F)F)C(=O)N[C@@H](Cc5csc6ccccc56)C(=O)N[C@@H](CCC(N)=O)C(N)=O)(C4)NC(=O)[C@H](CC(C)C)NC(=O)[C@H](Cc4ccccc4)NC(=O)[C@H](C)NC(=O)[C@H](C)NC(=O)[C@H](Cc4cccc(C(=O)O)c4)NC(=O)[C@H](CC(=O)O)NC3=O)NC1=O)CCCN2C(C)=O (stereo partly drawn) [I-2531, Ac-PL3-Asp-nLeu-B5-Asp-3COOHF-Ala-Ala-Phe-Leu-PyrS2-2F3MeF-BztA-Gln-NH2]	
0.754 µM	CC(=O)N1CCC[C@]12CC=CCCCC1(CCCC=CCCCOC(=O)N3CC[C@@](C(=O)N[C@@H](Cc4ccsc4)C(=O)N[C@@H](Cc4csc5ccccc45)C(=O)N[C@@H](Cc4c[nH]c5ccccc45)C(N)=O)(C3)NC(=O)[C@H](CC(N)=O)NC(=O)[C@H](Cc3ccccc3)NC(=O)[C@H](C)NC(=O)C(C)(C)NC(=O)[C@H]([C@@H](C)O)NC(=O)[C@H](CC(N)=O)NC1=O)NC(=O)[C@H](CC(C)(C)C)NC(=O)[C@H](CC(=O)O)NC2=O (stereo partly drawn) [I-2481, Ac-PL3-Asp-Npg-B5-Asn-Thr-Aib-Ala-Phe-Asn-PyrS2-3Thi-BztA-Trp-NH2]	
0.923 µM	CC(C)C[C@H](NC(=O)[C@]12CCN(C1)C(=O)OCCCCCCCCC1(CCCCCCCCC(=O)N3CCC[C@@]3(C)C(=O)N[C@@H](CC(=O)O)C(=O)N1)C(=O)N[C@@H](C)C(=O)N[C@@H](CC(=O)O)C(=O)N[C@@H](CC(=O)O)C(=O)N[C@@H](C)C(=O)N[C@@H](C)C(=O)N[C@@H](Cc1ccccc1)C(=O)N2)C(=O)N[C@@H](Cc1ccsc1)C(=O)N[C@@H](Cc1csc2ccccc12)C(=O)N[C@@H](CCC(N)=O)C(N)=O (stereo partly drawn) [I-2600, 5hexenyl-MePro-Asp-B5-Ala-Asp-Asp-Ala-Ala-Phe-PyrS2-Leu-3Thi-BztA-Gln-NH2]	
7.2 µM	CC(=O)N1CCC[C@]12CCCCCCC1(CCCCCCCCOC(=O)N3CC[C@@](C(=O)N[C@@H](Cc4ccsc4)C(=O)N[C@@H](Cc4csc5ccccc45)C(=O)N[C@@H](CCC(N)=O)C(N)=O)(C3)NC(=O)[C@H](CC(C)C)NC(=O)[C@H](Cc3ccccc3)NC(=O)[C@H](C)NC(=O)[C@H](CCCCNC(C)C)NC(=O)[C@H](CCC(N)=O)NC(=O)[C@H](CC(=O)O)NC1=O)NC(=O)[C@H](CC1CCCCC1)NC(=O)[C@H](CC(N)=O)NC2=O (stereo partly drawn) [I-2452, Ac-PL3-Asn-Cha-B5-Asp-Gln-iPrLys-Ala-Phe-Leu-PyrS2-3Thi-BztA-Gln-NH2]	
0.153 µM	CC(C)C[C@@H]1NC(=O)[C@H](Cc2ccccc2)NC(=O)[C@H](C)NC(=O)[C@H](C)NC(=O)[C@H](Cc2cccc(C(=O)O)c2)NC(=O)[C@H](CC(=O)O)NC(=O)C2(CCCCCCCCOC(=O)N3CC[C@@](C(=O)N[C@@H](Cc4ccccc4C(F)(F)F)C(=O)N[C@@H](Cc4csc5ccccc45)C(=O)N[C@@H](CCC(N)=O)C(N)=O)(C3)NC1=O)CCCCCC[C@@]13CCCN1C(=O)CCCCCC[C@H](NC(=O)[C@H](CC(=O)O)NC3=O)C(=O)N2 (stereo partly drawn) [I-2529, 5hexenyl-PL3-Asp-AllylGly-B5-Asp-3COOHF-Ala-Ala-Phe-Leu-PyrS2-2F3MeF-BztA-Gln-NH2]	
0.115 µM	CC(=O)N1CCC[C@]12CC=CCCCC1(CCCC=CCCCCOC(=O)N3CC(C(=O)N[C@@H](Cc4ccccc4C(F)(F)F)C(=O)N[C@@H](Cc4csc5ccccc45)C(=O)N[C@@H](CCC(N)=O)C(N)=O)(C3)NC(=O)[C@H](CC(C)C)NC(=O)[C@H](Cc3ccccc3)NC(=O)[C@H](C)NC(=O)C(C)(C)NC(=O)[C@H](Cc3cccc(C(=O)O)c3)NC(=O)[C@H](CC(=O)O)NC1=O)NC(=O)[C@H](CC(C)(C)C)NC(=O)[C@H](CC(=O)O)NC2=O (stereo partly drawn) [I-2615, Ac-PL3-Asp-Npg-B5-Asp-3COOHF-Aib-Ala-Phe-Leu-Az3-2F3MeF-BztA-Gln-NH2]	

Source: US20240116985A1, “STAPLED PEPTIDES AND METHODS THEREOF” (priority 2020, published 2024)
